Assay results taken from article PMC10124904, “Activation of Gcn2 by small molecules designed to be inhibitors” (The Journal of Biological Chemistry, 2023).
“And” between values parts separate entries of the source, which are not always exact repeats. Identical values can stand only once. One block for each molecule: values may come before it.

Experiments:
Type in all cases: cell-based
Gcn2 [1] = biological target: T1, Gcn2 (Homo sapiens, UniProt Q9P2K8); test: P(AAREx6)-Luc Atf4 transcriptional activity reporter in HEK293 cells; details: for dose response of Atf4 activity (P(AAREx6)-Luc): 2× serial dilution from 78 nM to 20 μM
T1 construct: HEK293 cells expressing endogenous WT Gcn2 (End WT); endogenous in cells; host or cells: HEK293 (HEK293A with integrated P(AAREx6)-Luc; HEK293/HEK293T)
T1 sequence (Q9P2K8 whole entry): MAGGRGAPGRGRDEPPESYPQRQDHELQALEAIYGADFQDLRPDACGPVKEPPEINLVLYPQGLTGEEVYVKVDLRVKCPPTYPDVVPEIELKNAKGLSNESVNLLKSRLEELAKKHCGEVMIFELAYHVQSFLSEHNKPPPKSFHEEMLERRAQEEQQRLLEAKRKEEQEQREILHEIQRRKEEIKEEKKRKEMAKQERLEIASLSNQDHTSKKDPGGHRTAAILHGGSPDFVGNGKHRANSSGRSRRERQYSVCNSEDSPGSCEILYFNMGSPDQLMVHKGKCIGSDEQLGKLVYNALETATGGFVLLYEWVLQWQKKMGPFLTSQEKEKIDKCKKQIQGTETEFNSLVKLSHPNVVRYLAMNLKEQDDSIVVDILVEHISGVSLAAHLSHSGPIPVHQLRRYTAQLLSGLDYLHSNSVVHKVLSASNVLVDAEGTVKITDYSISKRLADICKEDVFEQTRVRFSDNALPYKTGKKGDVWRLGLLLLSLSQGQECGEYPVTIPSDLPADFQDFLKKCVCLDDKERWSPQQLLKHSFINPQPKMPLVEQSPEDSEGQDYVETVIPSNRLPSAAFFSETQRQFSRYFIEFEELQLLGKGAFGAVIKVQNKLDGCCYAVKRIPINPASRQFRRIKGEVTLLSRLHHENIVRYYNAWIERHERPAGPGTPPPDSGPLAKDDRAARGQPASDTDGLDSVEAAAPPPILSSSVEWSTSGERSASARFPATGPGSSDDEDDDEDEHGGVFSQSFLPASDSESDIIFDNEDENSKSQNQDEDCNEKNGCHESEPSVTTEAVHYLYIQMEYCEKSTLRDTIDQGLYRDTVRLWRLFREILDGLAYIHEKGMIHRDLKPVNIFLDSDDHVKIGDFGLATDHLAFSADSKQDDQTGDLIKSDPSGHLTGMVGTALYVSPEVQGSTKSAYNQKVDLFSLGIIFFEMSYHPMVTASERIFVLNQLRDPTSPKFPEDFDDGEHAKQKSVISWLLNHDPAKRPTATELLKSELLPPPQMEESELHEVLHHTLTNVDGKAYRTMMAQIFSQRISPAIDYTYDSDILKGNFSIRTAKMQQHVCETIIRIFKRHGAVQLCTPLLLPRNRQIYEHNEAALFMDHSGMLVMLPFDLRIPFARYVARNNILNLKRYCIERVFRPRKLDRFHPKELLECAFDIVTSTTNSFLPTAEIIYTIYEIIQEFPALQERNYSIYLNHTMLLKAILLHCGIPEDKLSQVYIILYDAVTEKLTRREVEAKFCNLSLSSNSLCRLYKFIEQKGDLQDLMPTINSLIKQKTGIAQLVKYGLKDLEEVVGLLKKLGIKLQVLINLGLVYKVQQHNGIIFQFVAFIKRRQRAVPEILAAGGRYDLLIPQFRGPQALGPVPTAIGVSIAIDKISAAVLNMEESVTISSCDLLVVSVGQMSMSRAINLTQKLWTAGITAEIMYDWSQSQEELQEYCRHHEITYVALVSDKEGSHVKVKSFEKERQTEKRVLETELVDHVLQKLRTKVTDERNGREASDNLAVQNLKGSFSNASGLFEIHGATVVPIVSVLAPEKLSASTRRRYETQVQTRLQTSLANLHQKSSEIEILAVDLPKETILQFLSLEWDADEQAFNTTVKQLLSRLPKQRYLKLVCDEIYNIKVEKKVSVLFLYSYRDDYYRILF
Experimental: HEK-derived cells were used in this study. HEK293T cells were obtained from American Type Culture Collection. HEK293A cells were purchased from Invitrogen. Cells were cultured in Dulbecco's modified Eagle's medium (DMEM) (Corning 10-013-CV) supplemented with 10% (vol/vol) fetal bovine serum (Corning 35-010-CV), 100 U/ml penicillin, and 0.1 mg/ml streptomycin (Hyclone SV30010), hereafter referred to as DMEM complete, at 37 °C in 5% CO2 humidified incubator. […] To create cells stably expressing a luciferase reporter for Atf4 transcription activity, HEK293A cells were transduced with a lentivirus encoding an Atf4 transcription reporter (P(AAREx6)-Luc), which consists of six copies of C/ebp-Atf4 consensus binding sequence (5′-[…]-3′) upstream of a minimal promoter followed by the firefly luciferase coding sequence. Selection of the stable expression of the luciferase reporter was selected in DMEM complete supplemented with 1 μg/ml puromycin.
For transcriptional reporter assays, HEK293-P(AAREx6)-Luc cells were seeded into 96-well plate at 10,000 cells/well and cultured in DMEM complete at 37 °C with 5% CO2 overnight. After 24 h, cells were treated with HF or Gcn2iB, as indicated. After 6 h of culture, the media was replaced with 1:1 dilution of DMEM complete to Bio-Glo luciferase assay reagent (Promega Cat # G7940). The assay plate was incubated at room temperature for 15 min at 200 rpm on rotary plate shaker and then luminescence was read on BioTek Synergy H1 microplate reader using 1 s integration time and gain setting between 135 and 200. Luciferase activity was measured as luminescence for each of three experiments per treatment.

Gcn2 [2] = biological target: T1, Gcn2; test: Immunoblot of ISR markers (p-Gcn2, p-eIF2α, Atf4) in HEK293 cells with endogenous Gcn2 (End. WT)
Flag-Gcn2 WT = biological target: T2, Flag-Gcn2 WT (Homo sapiens, UniProt Q9P2K8); test: Atf4-Luc translational reporter, Gcn2 KO HEK293 cells expressing Flag-Gcn2 WT; details: 50 nM Gcn2iB vs vehicle, 6 h
T2 construct: Transomic Technologies) was inserted into pCDNA5; expressed in transfected cells; host or cells: HEK293 Gcn2 KO cells, transient transfection of pCDNA5-Gcn2
T2 sequence (Q9P2K8 whole entry): as above
Excerpt: (§1) The human Gcn2 coding sequence from pENTR223-1 Gcn2 (NM_001013703; Transomic Technologies) was inserted into pCDNA5 to create an amino-terminal 3× flag tag fusion with Gcn2 by using an In-Fusion HD cloning kit and a three-way cloning reaction method. The resulting plasmid pCDNA5-Gcn2, referred to in the text as Flag-Gcn2, was used as a template to construct the mutant versions detailed in Table 1 by site-directed mutagenesis using an In-Fusion HD cloning kit (Takara Bio). The Gcn2 expressing plasmid was introduced transiently into the HEK293-Gcn2 KO cells as described in the following complementation section. Plasmid pMSCV-Gadd34-puro contains the human Gadd34 (PPP1R15A, NM_014330.5) gene subcloned into the NcoI/EcoRI sites of the retroviral vector pMSCV-puro ([24]).
(§2) For translational reporter assays, HEK293-Gcn2 KO cells were cotransfected with WT or mutant Gcn2 and the reporter Atf4-Luc and nano-luciferase plasmids and then treated with HF or Gcn2iB. Gcn2 activity was measured in a dual luciferase assay. To perform this experiment, HEK293-Gcn2 KO cells were seeded into 12-well plates at 50,000 cells/well. […] The Atf4-Luc and nano-luciferase signals were measured with Nano-Glo Dual-Luciferase Reporter Assay kit (Promega Cat #N1620) using a Turner Biosystems 20/20 luminometer. […]

Flag-Gcn2 K619A = biological target: T3, Flag-Gcn2 K619A (Homo sapiens, UniProt Q9P2K8, K619A); test: Atf4-Luc translational reporter, Gcn2 KO HEK293 cells expressing Flag-Gcn2 K619A; details: 50 nM Gcn2iB, 1 μM neratinib, 2 μM dovitinib or 2 μM dabrafenib, 6 h
T3 construct: Transomic Technologies) was inserted into pCDNA5; expressed in transfected cells; host or cells: HEK293 Gcn2 KO cells, transient transfection
T3 sequence (Q9P2K8 whole entry K619A): as the sequence (Q9P2K8 whole entry) above, with K619A counted along it
Excerpt: as §1
(§3) For translational reporter assays, HEK293-Gcn2 KO cells were cotransfected with WT or mutant Gcn2 and the reporter Atf4-Luc and nano-luciferase plasmids and then treated with HF or Gcn2iB. Gcn2 activity was measured in a dual luciferase assay. To perform this experiment, HEK293-Gcn2 KO cells were seeded into 12-well plates at 50,000 cells/well. […] For experiments with Gadd34 expression, 100 ng of vector control or Gadd34 expression plasmid was included in the transfection. […] The Atf4-Luc and nano-luciferase signals were measured with Nano-Glo Dual-Luciferase Reporter Assay kit (Promega Cat #N1620) using a Turner Biosystems 20/20 luminometer. Firefly luciferase activity was normalized to nano-luciferase control for each of three biological replicates.

[3] = biological target: T4, Flag-Gcn2 M2 (F1143L/R1144L) (Homo sapiens, UniProt Q9P2K8, F1143L/R1144L); test: Atf4-Luc translational reporter, Gcn2 KO HEK293 cells expressing Flag-Gcn2 M2; details: 50 nM Gcn2iB, 1 μM neratinib, 2 μM dovitinib or 2 μM dabrafenib, 6 h
T4 construct: Transomic Technologies) was inserted into pCDNA5; expressed in transfected cells; host or cells: HEK293 Gcn2 KO cells, transient transfection
T4 sequence (Q9P2K8 whole entry F1143L/R1144L): as the sequence (Q9P2K8 whole entry) above, with F1143L, R1144L counted along it
Excerpt: as §1, §2

Flag-Gcn2 M802F = biological target: T5, Flag-Gcn2 M802F (Homo sapiens, UniProt Q9P2K8, M802F); test: Atf4-Luc translational reporter, Gcn2 KO HEK293 cells expressing Flag-Gcn2 M802F; details: Gcn2iB concentrations up to 4 μM, 6 h
T5 construct: Transomic Technologies) was inserted into pCDNA5; expressed in transfected cells; host or cells: HEK293 Gcn2 KO cells, transient transfection
T5 sequence (Q9P2K8 whole entry M802F): as the sequence (Q9P2K8 whole entry) above, with M802F counted along it
Excerpt: as §1, §2

Flag-Gcn2 M802V = biological target: T6, Flag-Gcn2 M802V (Homo sapiens, UniProt Q9P2K8, M802V); test: Atf4-Luc translational reporter, Gcn2 KO HEK293 cells expressing Flag-Gcn2 M802V; details: 4 nM Gcn2iB, 6 h
T6 construct: Transomic Technologies) was inserted into pCDNA5; expressed in transfected cells; host or cells: HEK293 Gcn2 KO cells, transient transfection
T6 sequence (Q9P2K8 whole entry M802V): as the sequence (Q9P2K8 whole entry) above, with M802V counted along it
Excerpt: as §1, §2

Flag-Gcn2 T899A = biological target: T7, Flag-Gcn2 T899A (Homo sapiens, UniProt Q9P2K8, T899A); test: Atf4-Luc translational reporter, Gcn2 KO HEK293 cells expressing Flag-Gcn2 T899A; details: 6 h; for increase in Atf4-Luc activity: T899A Gcn2, 50 nM Gcn2iB, 1 μM neratinib, 2 μM dovitinib or 2 μM dabrafenib
T7 construct: Transomic Technologies) was inserted into pCDNA5; expressed in transfected cells; host or cells: HEK293 Gcn2 KO cells, transient transfection
T7 sequence (Q9P2K8 whole entry T899A): as the sequence (Q9P2K8 whole entry) above, with T899A counted along it
Excerpt: as §1, §3

Gcn2 [4] = biological target: T1, Gcn2; test: Atf4-Luc translational reporter in HEK293 cells (endogenous Gcn2); details: 6 h
[5] = Gcn2iB pretreatment 30 min, then 12.5 nM HF 6 h
[6] = 25 nM HF, time course up to 6 h
[7] = 2 μM tunicamycin, 6 h, immunoblot

effect on HF-induced P(AAREx6)-Luc activity (Gcn2 [1]; 25 nM HF + 2 μM Gcn2iB, 6 h): sharply reduced | Gcn2iB concentration at peak induction of luciferase activity (Gcn2 [1]; Gcn2iB only, absence of HF, 6 h): about 32 nM | peak induction of luciferase activity (P(AAREx6)-Luc) (Gcn2 [1]; Gcn2iB only, absence of HF, 6 h, biphasic): 7.8 fold | IC50 (Gcn2 [1]; Gcn2iB pretreatment 30 min, then 12.5 nM HF 6 h, read-out: IC50 for diminishing HF-induced P(AAREx6)-Luc luciferase signal): 73 nM | time of maximal Atf4 expression (Gcn2 [2]; 50 nM Gcn2iB time course up to 6 h, WT cells): 6 h | induction of p-eIF2α (Gcn2 [2]; 50 nM Gcn2iB time course, WT cells, detected as early as 30 min): 2.7 fold | Gcn2iB concentration giving reductions in HF-induced Atf4 (Gcn2 [2]; [5]): ≥ 250 nM | Gcn2iB concentration giving reductions in HF-induced p-Gcn2 (Gcn2 [2]; [5]): ≥ 62.5 nM | Gcn2iB concentration above which p-Gcn2 was lowered below vehicle and Atf4 not appreciably induced (Gcn2 [2]; absence of HF, 6 h): Above 250 nM | Levels Atf4-Luc, fold change upon treatment (Flag-Gcn2 WT): 2.7 fold and 3 fold | increase in Atf4-Luc activity (Flag-Gcn2 K619A): no increase | increase in Atf4-Luc activity [3]: able to increase Atf4-Luc activity | increase in Atf4-Luc activity relative to untreated M802V cells (Flag-Gcn2 M802V): 2 fold | Levels Atf4-Luc, fold change upon treatment (Flag-Gcn2 T899A; 50 nM Gcn2iB vs vehicle, Flag-Gcn2 T899A): 2.8 fold | increase in Atf4-Luc activity (Flag-Gcn2 T899A): able to increase Atf4-Luc activity | effect on HF-induced Atf4-Luc expression (Gcn2 [4]; 25 nM HF + 2 μM Gcn2iB): sharply diminished
Molecule: COc1ncc(Cl)cc1S(=O)(=O)Nc1ccc(F)c(C#Cc2cnc(N)nc2)c1F [Gcn2iB]
Atf4-Luc activity in Gcn2iB dose response (Flag-Gcn2 M802F): maintained the same level of Atf4-Luc activity

dose response of Atf4 activity (P(AAREx6)-Luc) (Gcn2 [1]; 6 h): biphasic induction | increase in Atf4-Luc activity (Flag-Gcn2 K619A): no increase
Molecule: CN1CCN(c2ccc3nc(-c4c(N)c5c(F)cccc5[nH]c4=O)[nH]c3c2)CC1 [dovitinib]

Further lines, the molecule ahead of its results:

Molecule: O=C(COc1ccc(Cl)c(F)c1)NC12CC(NC(=O)c3cnc(C(F)F)cn3)(C1)C2 [2B-Act]
effect on biphasic induction of luciferase activity by Gcn2iB (Gcn2 [1]; pretreated 30 min with 1 μM A-92 or 2 μM 2B-Act, then Gcn2iB 6 h): ablated | effect of cotreatment on Gcn2iB-induced p-eIF2α and Atf4 levels (Gcn2 [2]; 1 μM A-92 or 2 μM 2B-Act pretreatment 30 min, then 50 nM Gcn2iB 6 h): lowered p-eIF2α and Atf4 levels

Molecule: O=C(CC1NCCCC1O)Cn1cnc2cc(Br)c(Cl)cc2c1=O (stereo not drawn) [HF, Halofuginone]
increase in luciferase signal (P(AAREx6)-Luc) (Gcn2 [1]; 12.5 nM HF, 6 h): approximately 30 fold | P(AAREx6)-Luc activity (Gcn2 [1]; 25 nM HF alone, 6 h): robust induction | time at which expression of Atf4 was enhanced (Gcn2 [2]; [6]): 1 h | time to increased p-Gcn2 and p-eIF2α (Gcn2 [2]; [6]): ≤ 30 min | Atf4 levels (Gcn2 [2]; 100 nM HF, 6 h, immunoblot): significant reduction | Atf4-Luc expression (Gcn2 [4]; 25 nM HF alone): robust induction

Molecule: CCOc1cc2ncc(C#N)c(Nc3ccc(OCc4ccccn4)c(Cl)c3)c2cc1NC(=O)/C=C/CN(C)C [neratinib]
dose response of Atf4 activity (P(AAREx6)-Luc) (Gcn2 [1]; 6 h): biphasic induction | increase in Atf4-Luc activity (Flag-Gcn2 K619A): no increase | increase in Atf4-Luc activity [3]: able to increase Atf4-Luc activity | increase in Atf4-Luc activity (Flag-Gcn2 T899A): able to increase Atf4-Luc activity

Molecule: tunicamycin
p-eIF2α and Atf4 (Gcn2 [2]; [7]): induced p-eIF2α and Atf4 | phosphorylation of Gcn2 (T899) (Gcn2 [2]; [7]): minimal phosphorylation of Gcn2
